Read-outs that look alike come from different tables or passages of the source. Values belong to the molecule of their own block, whether it stands above or below them.
Assay: Lung-tissue pharmacokinetics of PG–OJ components in tumor-bearing mice (UPLC–MS/MS)
Type: in vivo, BALB/c nude male mice
Conditions: for MRT last: read-out: MRT(0–t) (converted)
Text: This study employed Ultra-Performance Liquid Chromatography–Mass Spectrometry (UPLC–MS/MS) to examine the pharmacokinetic properties of 20 bioactive components in a cell-derived xenograft (CDX) model following oral administration of a 10.2 g/kg PG–OJ extract.
Healthy BALB/c nude male mice (weight: 18–21 g) were purchased from Beijing Huafukang Biotechnology Co., Ltd. (Beijing, China, License Number: SCXK (Jing) 2021-0006). After 3 days of acclimatization, the mice were randomly divided into the control group (CG), model group (MG), and the combined-administration group of P. ginseng and O. japonicus (HM1-HM13) ([…], four-fold clinical-equivalent doses). Subsequently, except for the CG, 0.2 mL (approximately 2 × 10^7 cells) of A549 cell suspension was aspirated with a 1 mL syringe and injected into the right axillary fossa of the model group and drug-administration-group mice. The control-group mice were injected with an equal volume of PBS at the same location. The tumor diameter was measured daily using a caliper. The model was successful when the tumor diameter > 3 mm. The combined-administration group of P. ginseng and O. japonicus was given the corresponding drug orally, once a day, with 0.2 mL/mouse each time. The control group and the model group mice were given the same volume of distilled water, continuously orally for 21 days. During this period, the body weight and tumor volume of the mice were recorded. At the end of the last administration, the mice were […] 0.083, 0.167, 0.25, 0.5, 0.75, 1, 2, 3, 4, 6, 8, 12, 24 h later. After injecting 0.1% pentobarbital sodium, blood was collected from the eye-socket vein, the mice were decapitated, and the tumor and lung tissues were carefully removed.
After homogenizing 50 mg of right-lung-tissue sample, 2 mL of acetonitrile was added to precipitate proteins. The mixture was oscillated for 2 min and then centrifuged for 10 min (12,000 rpm, 4 °C). The supernatant from the new centrifuge tube was collected and dried with nitrogen at room temperature. Finally, the supernatant was redissolved in 50 μL of acetonitrile solution containing 0.1% formic acid. After oscillating for 1 min, another centrifugation step was performed, and the resulting supernatant was used for analysis.
Samples were analyzed on the Vanquish UPLC System (Thermo, Waltham, MA, USA). The Agilent C18 column (4.6 × 150 mm, 4 μm, PN:693970-902T) was selected. The mobile phase was composed of 0.1% formic acid aqueous solution (A) and 0.1% formic acid acetonitrile solution (B). The procedure of gradient elution was as follows: 0–10 min, 95–75% A; 10–25 min, 75–45% A; 25–40 min, 45–30% A; 40–50 min, 30–5% A; 55–55.1 min, 5–95% A; 55.1–60 min, 95% A. The column temperature was set to 30 °C with the flow rate of 0.3 mL/min and the injection volume of 3.0 μL. The mass-spectrometry detection with negative-ion mode was carried out using an Orbitrap Exploris 120 Mass Spectrometer (Thermo, Waltham, MA, USA) and Electrospray ionization (ESI). The sheath-gas-flow rate was […] and the auxiliary-gas-flow rate was […]. The capillary temperature was 325 °C, and the resolution was 120,000 in full scan mode with the mass scan range of 80~1500 m/z. The secondary cracking was performed with HCD at a collision voltage of 30 eV, and unnecessary MS/MS information was removed using the dynamic exclusion method.

[1] = lung tissue, A549 tumor-bearing mice, intragastric PG–OJ extract 10.2 g/kg (6.8 g/kg elsewhere in the source), mean ± SD, n = 6
[2] = lung tissue, oral PG–OJ extract, in words
[3] = male, BALB/c nude, mouse, po, lung tissue, A549 tumor-bearing mice, intragastric PG–OJ extract 10.2 g/kg (6.8 g/kg elsewhere in the source), mean ± SD, n = 6, read-out: Cmax
[4] = male, BALB/c nude, mouse, po, lung tissue, A549 tumor-bearing mice, intragastric PG–OJ extract 10.2 g/kg (6.8 g/kg elsewhere in the source), mean ± SD, n = 6
[5] = male, BALB/c nude, mouse, po, lung tissue, A549 tumor-bearing mice, intragastric PG–OJ extract 10.2 g/kg (6.8 g/kg elsewhere in the source), mean ± SD, n = 6, read-out: T1/2
[6] = male, BALB/c nude, mouse, in vivo, po
[7] = male, BALB/c nude, mouse, in vivo, po, Tmax

Molecule: CC(C)=CC/C=C(\C)[C@H]1CC[C@]2(C)[C@@H]1[C@H](O)C[C@@H]1[C@@]3(C)CC[C@H](O[C@@H]4O[C@H](CO)[C@@H](O)[C@H](O)[C@H]4O[C@@H]4O[C@H](CO)[C@@H](O)[C@H](O)[C@H]4O)C(C)(C)[C@@H]3CC[C@]12C [Ginsenoside Rg5]
AUC(0–t) [1]: 1,342,117.43 ± 45,675.73 ng/g·min
AUC(0–∞) [1]: 1,372,202.28 ± 48,963.33 ng/g·min
AUC(0–∞) compared with other components [2]: significantly higher than those of other components
Tmax (male, BALB/c nude, mouse, lung tissue, po, 10.2 g/kg, lung tissue, A549 tumor-bearing mice, intragastric PG–OJ extract 10.2 g/kg (6.8 g/kg elsewhere in the source), mean ± SD, n = 6, read-out: Tmax (converted)): 4 h
Tmax (male, BALB/c nude, mouse, lung tissue, po, 10.2 g/kg, lung tissue, oral PG–OJ extract, read-out: time to reach peak concentration): 12 h
Cmax [3]: 7970 ± 442 ng/g
MRT last [4]: 3.07 h
half-life [5]: 2.11 ± 0.157 h
exposure level in lung tissue (oral PG–OJ extract, in words): highest exposure level

Molecule: CC(C)=CCC[C@](C)(O[C@@H]1O[C@H](CO)[C@@H](O)[C@H](O)[C@H]1O)[C@H]1CC[C@]2(C)[C@@H]1[C@H](O)C[C@@H]1[C@@]3(C)CC[C@H](O)C(C)(C)[C@@H]3[C@@H](O)C[C@]12C [Ginsenoside F1]
half-life [6]: 2.24 ± 0.241 h
Tmax [7]: 4 h
exposure level in lung tissue (mouse, in vivo, po): extremely low

Molecule: CC(C)=CCC[C@](C)(O[C@@H]1O[C@H](CO)[C@@H](O)[C@H](O)[C@H]1O)[C@H]1CC[C@]2(C)[C@@H]1[C@H](O)C[C@@H]1[C@@]3(C)CC[C@H](O)C(C)(C)[C@@H]3[C@@H](O[C@@H]3O[C@H](CO)[C@@H](O)[C@H](O)[C@H]3O[C@@H]3OC[C@@H](O)[C@H](O)[C@H]3O)C[C@]12C [Notoginsenoside R1]
T1/2 (mouse, in vivo, po): 1.24 ± 0.0245 h
Tmax (mouse, in vivo, po): 0.125 ± 0.059 h
exposure level in lung tissue (mouse, in vivo, po): extremely low
time to reach maximum concentration (Cmax) after administration (mouse, in vivo, po): ≤ 15 min

T1/2 (mouse, in vivo, po): 3.786 ± 0.2045 h
Tmax (mouse, in vivo, po): 0.25 ± 0 h
time to reach maximum concentration (Cmax) after administration (mouse, in vivo, po): ≤ 15 min
Molecule: 24(R)-pseudoginsenoside F11

Molecule: CC(C)=CCC[C@](C)(O)[C@H]1CC[C@]2(C)[C@@H]1[C@H](O)C[C@@H]1[C@@]3(C)CC[C@H](O[C@@H]4O[C@H](CO)[C@@H](O)[C@H](O)[C@H]4O[C@@H]4O[C@H](CO)[C@@H](O)[C@H](O)[C@H]4O)C(C)(C)[C@@H]3CC[C@]12C [Ginsenoside Rg3]
AUC(0–t) [1]: 1879.87 ± 53.24 ng·min/g
AUC(0–∞) [1]: 14,133.43 ± 3134.88 ng/g·min
Cmax [1]: 4.75 ± 0.12 ng/g
MRT(0–t) [1]: 3.8352 ± 0.0448 h
T1/2 [1]: 39.6943 ± 9.3722 h
Tmax [1]: 0.0833 ± 0 h

T1/2 (mouse, in vivo, po): 20.3208 ± 6.0457 h
Tmax (mouse, in vivo, po): 2.5 ± 0 h
Molecule: Cc1c(O)c(C)c2c(c1O)C(=O)[C@H](Cc1ccc3c(c1)OCO3)CO2 [Methylophiopogonanone A]

T1/2 (mouse, in vivo, po): 6.5088 ± 1.6737 h
Tmax (mouse, in vivo, po): 2.5 ± 0 h
Molecule: COc1ccc(C[C@@H]2COc3c(C)c(O)c(C)c(O)c3C2=O)cc1 [Methylophiopogonanone B]

AUC(0–t) [1]: 46,163.94 ± 1033.00 ng/g·min
AUC(0–∞) [1]: 56,296.57 ± 6663.99 ng/g·min
Cmax [3]: 83 ± 2.11 ng/g
MRT last [4]: 11.1 h
half-life [5]: 16.2 ± 3.68 h
Molecule: CC(C)=CCC[C@](C)(O[C@@H]1O[C@H](CO)[C@@H](O)[C@H](O)[C@H]1O)[C@H]1CC[C@]2(C)[C@@H]1[C@H](O)C[C@@H]1[C@@]3(C)CC[C@H](O[C@@H]4O[C@H](CO)[C@@H](O)[C@H](O)[C@H]4O[C@@H]4O[C@H](CO)[C@@H](O)[C@H](O)[C@H]4O)C(C)(C)[C@@H]3CC[C@]12C [Ginsenoside Rd]
AUC(0–∞) compared with other components [2]: significantly higher than those of other components

Molecule: CC(C)=CCC[C@](C)(O)[C@H]1CC[C@]2(C)[C@@H]1[C@H](O)C[C@@H]1[C@@]3(C)CC[C@H](O)C(C)(C)[C@@H]3[C@@H](O[C@@H]3O[C@H](CO)[C@@H](O)[C@H](O)[C@H]3O[C@@H]3O[C@@H](C)[C@H](O)[C@@H](O)[C@H]3O)C[C@]12C [Ginsenoside Rg2]
half-life [6]: 3.58 ± 0.103 h
Tmax [7]: 0.25 h
AUC(0–∞) compared with other components (mouse, in vivo, po): significantly higher than those of other components
time to reach maximum concentration (Cmax) after administration (mouse, in vivo, po): ≤ 15 min
